Some results are limits rather than exact numbers.

One assay has as its target T1, Jak1 (Homo sapiens, UniProt P23458).
T1 construct: Reaction Biology Corp (performed the assay)
Description: Jak1 biochemical assay (33P-ATP filter-binding, Reaction Biology Corp). The settings on record: for IC50: biochemical kinase assay, 33P-ATP, filter-binding, read-out: Jak1 (range of IC50); for Jak1 inhibition, statement in words: biochemical assays, Jak1 versus Jak2. As to the method:
(§1) Example B1: Jak1, 2, 3, Tyk2 Biochemical Assays
(§2) Assays were performed by Reaction Biology Corp, Malvern, Pa. The procedure is briefly described below.
(§3) Base Reaction buffer; 20 mM Hepes (pH 7.5), 10 mM MgCl2, 1 mM EGTA, 0.02% Brij35, 0.02 mg/ml BSA, 0.1 mM Na3VO4, 2 mM DTT, 1% DMSO. Required cofactors are added individually to each kinase reaction
(§4) 1. Prepare indicated substrate in freshly prepared Base Reaction Buffer
(§5) 2. Deliver any required cofactors to the substrate solution above
(§6) 3. Deliver indicated kinase into the substrate solution and gently mix
(§7) 4. Deliver compounds in DMSO into the kinase reaction mixture by Acoustic technology (Echo550; nanoliter range), incubate for 20 minutes at room temperature
(§8) 5. Deliver ^33P-ATP (specific activity 10 μCi/μl) into the reaction mixture to initiate the reaction.
(§9) 6. Incubate kinase reaction for 2 hours at room temperature
(§10) 7. Reactions are spotted onto P81 ion exchange paper
(§11) 8. Detect kinase activity by filter-binding method.

For another assay, the target named is T2, Jak2 (Homo sapiens, UniProt O60674).
T2 construct: Reaction Biology Corp (performed the assay)
Description: Jak2 biochemical assay (33P-ATP filter-binding, Reaction Biology Corp). The settings on record: biochemical kinase assay, read-out: Jak2 (range of IC50). As to the method:
as §1, §2, §3, §4, §5, §6, §7, §8, §9, §10, §11

Assay [1] has as its system TPO induced STAT3 phosphorylation. Description: Human whole blood p-STAT3 assay, TPO stimulation. The settings on record: for IC50: 0.25 h, TPO 50 ng/ml 15 min, pSTAT3 ELISA, read-out: TPO (range of IC50, induced STAT3 phosphorylation). Type of assay: cell-based. The method, then: (§12) Example B2: Human Whole Blood p-STAT3 Assay
(§13) 1. Whole blood samples from human donors
3. Thrombopoietin (TPO; R&D systems; Cat #288-TP)
(§14) 5. ELISA kit for pSTAT3 (Invitrogen; Cat # KH00481)
(§15) 1. 150 μl heparinized blood sample/tube.
(§16) 2. Compounds at various concentrations is added to the blood, incubate for 10 min at RT (10 doses, 2 replicates for each compound).
(§17) 3. Add IL-6 (final concentration: 100 ng/ml) or TPO (final conc: 50 ng/ml) to the blood for 15 min.
(§18) 4. After the stimulation, add 0.6 mL RBC lysis buffer (Qiagen 79217) and mix and rock for 1-2 minutes at room temperature before centrifugation to remove lyzed RBCs. This step may be repeated once if RBCs are not lyzed completely. Harvest the WBCs.
(§19) 5. Add 200 μl cell lysis buffer, ice 30 min.
(§20) 7. Transfer the supernatant to a new tube as cell lysate.
(§21) 8. Run ELISA procedure according to the product instruction of ELIA kit.
In general terms: In an ELISA, binding on a coated surface is turned into a signal by an enzyme label.

Assay [2] relates to IL-6 induced STAT3 phosphorylation. Nature of the assay: Human whole blood p-STAT3 assay, IL-6 stimulation. The assay is classed as cell-based. The settings on record: for IC50: 0.25 h, IL-6 100 ng/ml 15 min, pSTAT3 ELISA, read-out: IL-6 (range of IC50, induced STAT3 phosphorylation); for Inhibition of IL-6 induced STAT3 phosphorylation, statement in words: versus TPO induced. The method, then: as §12, §13
2. IL-6 (R&D systems; Cat #206-IL)
as §14, §15, §16, §17, §18, §19, §20, §21

T2 sequence (O60674 whole entry): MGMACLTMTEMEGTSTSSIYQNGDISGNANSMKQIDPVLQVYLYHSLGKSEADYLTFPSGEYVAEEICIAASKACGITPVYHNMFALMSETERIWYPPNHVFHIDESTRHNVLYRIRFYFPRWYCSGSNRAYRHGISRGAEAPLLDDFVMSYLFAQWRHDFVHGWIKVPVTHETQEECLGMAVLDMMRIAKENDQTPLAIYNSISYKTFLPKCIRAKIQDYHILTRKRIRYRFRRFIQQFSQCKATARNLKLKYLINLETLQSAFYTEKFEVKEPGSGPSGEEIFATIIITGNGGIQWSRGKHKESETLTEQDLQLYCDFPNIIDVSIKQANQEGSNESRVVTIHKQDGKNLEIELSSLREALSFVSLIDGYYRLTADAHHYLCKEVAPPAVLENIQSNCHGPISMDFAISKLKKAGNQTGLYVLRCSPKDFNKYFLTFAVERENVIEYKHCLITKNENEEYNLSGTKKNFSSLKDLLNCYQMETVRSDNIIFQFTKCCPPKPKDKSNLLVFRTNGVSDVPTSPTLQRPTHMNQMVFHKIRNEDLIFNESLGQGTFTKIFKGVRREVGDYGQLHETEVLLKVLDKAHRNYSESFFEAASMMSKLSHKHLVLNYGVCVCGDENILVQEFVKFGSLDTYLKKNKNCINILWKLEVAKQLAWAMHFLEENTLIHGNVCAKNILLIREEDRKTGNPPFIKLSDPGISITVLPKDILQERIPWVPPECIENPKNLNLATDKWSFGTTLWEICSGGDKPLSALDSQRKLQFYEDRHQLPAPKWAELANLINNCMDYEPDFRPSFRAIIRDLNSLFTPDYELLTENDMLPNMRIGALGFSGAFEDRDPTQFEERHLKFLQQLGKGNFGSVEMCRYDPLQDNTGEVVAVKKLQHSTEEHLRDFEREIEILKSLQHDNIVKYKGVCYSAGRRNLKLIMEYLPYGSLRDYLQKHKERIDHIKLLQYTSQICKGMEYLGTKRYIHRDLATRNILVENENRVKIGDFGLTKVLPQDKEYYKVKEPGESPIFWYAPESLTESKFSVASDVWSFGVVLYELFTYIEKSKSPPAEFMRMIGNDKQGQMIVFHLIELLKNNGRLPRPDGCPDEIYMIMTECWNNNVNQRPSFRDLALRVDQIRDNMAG
T1 sequence (P23458 whole entry): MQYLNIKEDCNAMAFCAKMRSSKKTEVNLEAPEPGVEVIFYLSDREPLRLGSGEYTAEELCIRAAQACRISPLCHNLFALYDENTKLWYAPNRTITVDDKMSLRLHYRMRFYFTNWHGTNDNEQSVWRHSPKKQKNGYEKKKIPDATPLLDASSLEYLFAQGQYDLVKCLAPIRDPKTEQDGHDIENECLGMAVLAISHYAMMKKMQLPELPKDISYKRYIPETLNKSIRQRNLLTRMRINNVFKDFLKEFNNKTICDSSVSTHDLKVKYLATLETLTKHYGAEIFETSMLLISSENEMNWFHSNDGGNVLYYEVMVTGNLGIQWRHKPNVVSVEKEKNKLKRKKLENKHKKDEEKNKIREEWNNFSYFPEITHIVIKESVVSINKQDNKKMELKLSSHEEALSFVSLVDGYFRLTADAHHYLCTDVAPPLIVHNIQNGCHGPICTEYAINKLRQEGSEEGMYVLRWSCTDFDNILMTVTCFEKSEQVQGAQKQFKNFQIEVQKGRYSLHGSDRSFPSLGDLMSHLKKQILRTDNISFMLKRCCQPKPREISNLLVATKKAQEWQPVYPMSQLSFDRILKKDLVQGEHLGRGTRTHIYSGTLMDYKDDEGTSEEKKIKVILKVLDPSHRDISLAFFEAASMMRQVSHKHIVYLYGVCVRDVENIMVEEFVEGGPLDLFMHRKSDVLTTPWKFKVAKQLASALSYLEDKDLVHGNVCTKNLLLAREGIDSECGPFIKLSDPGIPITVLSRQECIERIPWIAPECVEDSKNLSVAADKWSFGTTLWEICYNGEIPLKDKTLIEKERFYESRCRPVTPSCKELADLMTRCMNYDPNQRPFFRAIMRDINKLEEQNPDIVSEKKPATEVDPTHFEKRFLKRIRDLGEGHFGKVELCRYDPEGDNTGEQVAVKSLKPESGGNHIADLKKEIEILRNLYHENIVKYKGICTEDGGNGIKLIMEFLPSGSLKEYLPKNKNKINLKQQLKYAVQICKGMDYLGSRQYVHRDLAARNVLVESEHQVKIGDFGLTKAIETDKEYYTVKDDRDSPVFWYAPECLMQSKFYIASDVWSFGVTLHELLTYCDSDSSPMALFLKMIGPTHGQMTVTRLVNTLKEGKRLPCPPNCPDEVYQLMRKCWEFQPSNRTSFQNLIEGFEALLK

In the case of `C[C@@H](O)c1nc2cnc3ccoc3c2n1[C@H]1CC[C@H](C#N)CC1` [Example 1, trans-4-[2-[(R)-1-Hydroxyethyl]-1H-furo [3,2-b]imidazo [4,5-d]pyridin-1-yl] cyclohexanecarbonitrile], the IC50 on Jak1 fell in the range of 100 to 1000 nM.

Regarding `N#C[C@H]1CC[C@H](n2c(CO)nc3cnc4ccoc4c32)CC1` [Example 2, trans-4-[2-(Hydroxymethyl)furo[3,2-b]imidazo[4,5-d]pyridin-1-yl]cyclohexanecarbonitrile], at Jak1, the half-inhibitory concentration (IC50) fell in the range of 100 to 1000 nM.

Turning to `C[C@@H](O)c1nc2cnc3ccoc3c2n1[C@H]1CC[C@H](CC#N)CC1` [Example 3, 2-[trans-4-[2-[(R)-1-Hydroxyethyl]furo[3,2-b]imidazo[4,5-d]pyridin-1-yl]cyclohexyl] acetonitrile], the half-maximal inhibitory concentration (IC50) on Jak2 was 100 to 1000 nM; at Jak1 it was less than 10 nM; in assay [1] it was greater than 100000 nM; in assay [2], less than 5000 nM. Moreover, on Jak1, the “Jak1 inhibition, statement in words” value was “potent and selective Jak1 inhibitors”. Besides, the “Inhibition of IL-6 induced STAT3 phosphorylation, statement in words” value in assay [2] is “selective inhibition of IL-6 induced STAT3 phosphorylation, but not TPO induced STAT3 phosphorylation”.

In the case of `C[C@@H](O)c1nc2cnc3ccoc3c2n1[C@H]1CC[C@H](CC#N)OC1` [Example 4, 2-[(2R,5S)-5-[2-[(R)-1-Hydroxyethyl]furo[3,2-b]imidazo[4,5-d]pyridin-1-yl]tetrahydropyran-2-yl] acetonitrile], the IC50 on Jak2 was 100 to 1000 nM; on Jak1, less than 10 nM; in assay [1] it was greater than 100000 nM; in assay [2] it was less than 5000 nM. Further, the “Jak1 inhibition, statement in words” value on Jak1 is “potent and selective Jak1 inhibitors”. Besides, the “Inhibition of IL-6 induced STAT3 phosphorylation, statement in words” value in assay [2] is given as “selective inhibition of IL-6 induced STAT3 phosphorylation, but not TPO induced STAT3 phosphorylation”.

For `C[C@@H](O)c1nc2cnc3ccoc3c2n1C1CCN(C(=O)NCC(F)(F)F)C1` (stereo partly drawn) [Example 5, 3-[2-[(R)-1-Hydroxyethyl]-1H-furo[3,2-b]imidazo[4,5-d]pyridin-1-yl]-N-(2,2,2-trifluoroethyl)pyrrolidine-1-carboxamide], the IC50 at Jak2 and at Jak1 was greater than 1000 nM each time.

As to `C[C@@H](O)c1nc2cnc3ccoc3c2n1C1CCN(C(=O)NCC(F)(F)F)CC1` [Example 6, (R)-4-[2-(1-Hydroxyethyl)-1H-furo[3,2-b]imidazo[4,5-d]pyridin-1-yl]-N-(2,2,2-trifluoroethyl)piperidine-1-carboxamide], the IC50 at Jak2 and on Jak1 was greater than 1000 nM in each case.

`N#CC[C@H]1CC[C@H](n2c(CO)nc3cnc4ccoc4c32)CO1` [Example 7, 2-[(2R,5S)-5-[2-(Hydroxymethyl)furo[3,2-b]imidazo[4,5-d]pyridin-1-yl]tetrahydropyran-2-yl] acetonitrile]: the IC50 on Jak2 was 100 to 1000 nM; at Jak1 it was less than 10 nM; in assay [1] it was greater than 100000 nM; in assay [2], less than 5000 nM. In addition, the “Jak1 inhibition, statement in words” value at Jak1 is “potent and selective Jak1 inhibitors”. In assay [2], the “Inhibition of IL-6 induced STAT3 phosphorylation, statement in words” value was “selective inhibition of IL-6 induced STAT3 phosphorylation, but not TPO induced STAT3 phosphorylation”.

As to `N#CC[C@@H]1CC[C@H](n2c(CO)nc3cnc4ccoc4c32)CO1` [Example 8, 2-[(2S,5S)-5-[2-(Hydroxymethyl)furo[3,2-b]imidazo[4,5-d]pyridin-1-yl]tetrahydropyran-2-yl] acetonitrile], the IC50 at Jak2 was greater than 1000 nM; at Jak1, 100 to 1000 nM.

As for `CCc1nc2cnc3ccoc3c2n1[C@H]1CC[C@H](CC#N)OC1` [Example 9, 2-[(2R,5S)-5-[2-Ethylfuro[3,2-b]imidazo[4,5-d]pyridin-1-yl]tetrahydropyran-2-yl] acetonitrile], at Jak2, the IC50 is 100 to 1000 nM. Also, at Jak1, the “Jak1 inhibition, statement in words” value is “potent and selective Jak1 inhibitors”; the half-maximal inhibitory concentration (IC50) was less than 10 nM.

Take `Cc1nc2cnc3ccoc3c2n1[C@H]1CC[C@H](CC#N)OC1` [Example 11, 2-[(2R,5S)-5-[2-Methylfuro [3,2-b]imidazo [4,5-d]pyridin-1-yl]tetrahydropyran-2-yl] acetonitrile]: the IC50 on Jak2 is 10 to 100 nM; at Jak1, less than 10 nM; in assay [1] it was 20000 to 100000 nM; in assay [2] it was less than 5000 nM. For the same compound, in assay [1], the “Activity in the TPO induced STAT3 phosphorylation assay, statement in words” value was “some activity”.

One may read the IC50 as the point on the concentration scale where inhibition reaches its midpoint.
